“And” between values parts separate entries of the source, which are not always exact repeats. Equal entries are not always repeated.
Assays:
[1] = tested on: MIA rat model of OA; test: MIA trial 2 digital Randall-Selitto test (daily tacrolimus 0.3 or 0.6 mg/kg i.p., curcumin 50 mg/kg p.o., fluocinolone 0.01 mg/kg s.c.; weekly clonidine 0.1 mg/kg s.c.); format: in vivo
Protocol: The digital Randall-Selitto (dRS) test is said to be a reliable and repeatable measure of neuropathic, bone, and inflammatory pain behavior in several different models, including those of arthritic or joint pain [29, 31, 32]. Baseline and posttreatment values were evaluated using a dRS test device (IITC Life Science, Woodland Hills, CA, USA). Animals were allowed to acclimate to the testing room before all experimentation and for a minimum of 30 minutes before testing. To ensure that their hind limbs were accessible, the animals were gently suspended in a restraint sling. The joint compression threshold was measured once at each time point for the ipsilateral and contralateral knee joints. Pressure was applied gradually over approximately 10 seconds to the medial and lateral aspects of the knee joint. Measurements were taken from the first observed behavior of vocalization, struggle, or withdrawal. A cutoff value of 600 g was used to prevent injury to the animal.
Following isoflurane anesthesia, 50 μl (2 mg) of MIA was injected into the synovial space of the left knee. Animals were randomly assigned to groups, and pain behavior was assessed 7, 14, 21, and 28 days following MIA injection and intervention using WB with the Stoelting incapacitance meter (trial 1) or the dRS test (trials 2 and 3). […] Animals received MIA treatment and then saline control or therapeutic. […] Histopathology was performed at each time point and at study termination. All studies were conducted in accordance with the International Association for the Study of Pain Guidelines and were approved by the Algos Therapeutics, Inc. Institutional Animal Care and Use Committee (IACUC) before initiation. Those running the studies were blind to the treatments. See Additional file 1 for further details.

[2] = published half-life; cited from earlier work
[3] = tested on: Normal human articular chondrocytes; test: Cytotoxicity to chondrogenic pellets (CellTiter-Blue)
Protocol: Differentiated chondrogenic pellets were used both to test the ability of drugs to block MMP-13 activity and to test for drug toxicity. […] Supernatants were collected and analyzed for MMP-13 using an enzyme-linked immunosorbent assay (GE Healthcare Life Sciences, Little Chalfont, UK). Cytotoxicity to pellets was assessed using CellTiter-Blue (Promega).

[4] = tested on: SW982; test: Synovial toxicity (CellTiter-Glo), with or without TNF-α
Protocol: Viability was measured with the CellTiter-Glo luminescent viability assay (Promega). […] To more accurately predict the effects of the drugs on osteoarthritic synovium, cells were tested with or without TNF-α (20 ng/ml; BioSource).
In Vitro Toxicity Testing with a Synovial Cell Line
Compounds were tested for synovial toxicity using SW982 cells alone or in the presence of TNF as

[5] = tested on: RAW 264.7 cells; test: RANKL-mediated osteoclastogenesis / matrix resorption (Osteologic) assay; format: cell-based, murine; conditions: Mus musculus, RAW264.7, 168 h; read-out: Lowest inhibitory concentration, matrix resorption
Summary of the method: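 Agents were tested during or after differentiation. Wells were bleached and resorption pits were quantified by image analysis versus RANKL-only controls, using an unpaired t-test.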

[6] = Comparison of in vitro screens: overlapping effective and nontoxic range; conditions: for Overlapping effective and nontoxic range: inhibits with minimal or no toxicity to synovium or cartilage, overlapping range if effective in more than one assay;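 as to all read-outs here: compares non-toxic ranges in synovial cells and chondrocytes with effective ranges against NFkB, MMP-13 and osteoclasts, giving their overlap as the predicted efficacy range in uM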
[7] = tested on: MIA rat model of OA; test: MIA trial 3 histopathology (same doses as dRS test); format: in vivo; design: key to Cartilage matrix damage score: 5-point cartilage matrix score; key to Mean of all cartilage loss: approximate % loss, mean of four articular surfaces; Subchondral bone sclerosis: scale not given here; conditions: group mean, i.a. weekly
From the text: For MIA trial 3, joints were fixed and toluidine blue–stained sections of the rat knees were comprehensively analyzed from test and control subjects as detailed in Additional file 1. Briefly, a 5-point cartilage matrix score was derived based upon (1) approximate percentage of total loss of articular chondrocytes for each of four articular surfaces, (2) estimated proteoglycan loss (via Safranin O staining), and (3) loss of interstitial matrix. Chondrocyte necrosis and proteolytic degeneration of the femurs were scored on a 5-point scale as in trial 1. A femoral cartilage degeneration score and a three-zone sum of the tibial cartilage degeneration scores (mean of three levels) were also summed to create a total cartilage degeneration score. The mean osteophyte score for each joint was added to this value to create a total joint score with matrix. Other parameters assessed included synovial membrane inflammation and proliferation. Representative images from each group were also collected (see, e.g., Fig. 4 and Additional file 1: Fig. S55, Trial 3). […]
Hawes, APS, Pathologist). Treatments were masked during the assessment. Chondrocyte necrosis and proteolytic degeneration of the femurs were scored on a 5 point scale with 0 = None; 1 = <10%; […]
For the histopathology of the MIA model in Trial 3, completed by Bolder BioPATH (and Dr.
Bendele), a tolouidine blue stained slide containing both halves of the joint was comprehensively analyzed from test and control subjects. Approximate % of total loss of articular chondrocytes, loss of proteoglycan and loss of collagenous matrix were determined for each articular surface (medial tibial plateau (MTP), lateral tibial plateau (LTP), medial femoral condyle (MFC), and lateral femoral condyle (LFC). Chondrocyte loss was quantified by estimating the area of cartilage in which there were no apparently viable chondrocytes and proteoglycan loss was quantified by estimating differences in intensity of toluidine blue matrix staining. Loss of interstitial matrix was an indication of disruption and diminished type II collagen. Based on the mean % loss for the four surfaces in these parameters, a five point matrix score was utilized with the subchondral bone resorption, subchondral bone sclerosis and osteophyte scores to achieve a total joint score. […]
[…] steps, stained with toluidine blue (with a right and left halve per section), and analyzed for cartilage degeneration, proteoglycan loss, collagen damage, and osteophyte formation. Results were averaged across the 3 sections for an overall semi-quantitative score. Regional differences across the tibial plateau were taken into consideration by dividing each section into 3 zones delineated using an ocular micrometer (outside, middle, and inside). Scores were based on the percentage of area affected within the zone.
Cartilage degeneration in the tibia was scored on a five point scale for each zone, collagen damage across the medial tibial plateau was measured by total width for each grade damage. Cartilage degeneration in the tibia was scored none to severe (numerical values 0-5) for each zone (area defined by micrometer) using the following criteria: […]

[8] = day 21, tacrolimus 0.3 mg/kg, other drugs single dose

SMILES	dRS, hours after dosing with significant difference [1, 8]	Non-toxic range (Chondrocyte) [3] [µM]	Non-toxic range (Synovial) [4]	minimal effective concentration [5] [µM]	Non-toxic & predicted range of efficacy [6] [µM]	Overlapping effective and nontoxic range [6] [µM]	Bone resorption percent, LFC [7] [%]	Bone resorption percent, LTP [7] [%]	Bone resorption percent, MFC [7] [%]	Bone resorption percent, MTP [7] [%]	Bone resorption percent, mean [7] [%]	Bone resorption score [7]	Cartilage matrix damage score [7]	Mean of all cartilage loss [7]	Osteophyte measure [7] [µm]	Osteophyte score [7]	Subchondral bone sclerosis [7]	Total joint score w/o matrix [7]	Total joint score with matrix [7]	t 1/2 [2]	also measured
COc1cc(/C=C/C(=O)CC(=O)/C=C/c2ccc(O)c(OC)c2)ccc1O [Curcumin, Diferuloylmethane]	Pretrt^d	0.84 to 27	1.7 to 54 µM	–	–	–	–	–	–	–	–	–	–	–	–	–	–	–	–	–	dRS, hours after dosing with significant difference ([1]; day 7, tacrolimus 0.3 mg/kg, other drugs single dose): 1 h; t 1/2 intestinal [2]: 10 min; t 1/2 plasma [2]: 30 to 50 min
C=CC[C@@H]1/C=C(\C)C[C@H](C)C[C@H](OC)[C@H]2O[C@@](O)(C(=O)C(=O)N3CCCC[C@H]3C(=O)O[C@H](/C(C)=C/[C@@H]3CC[C@@H](O)[C@H](OC)C3)[C@H](C)[C@@H](O)CC1=O)[C@H](C)C[C@@H]2OC [Tacrolimus]	Pretrt^d	0.8 to 50	1.5 to 100 µM	0.0026	25 to 50	50	100	100	100	100	100	5.0	5.0 and 5.0 ± 0.0	92.5	666.7	3.3	0.0	8.3	13.3 and 13.3 ± 1.7	–	dRS, hours after dosing with significant difference ([1]; day 21, tacrolimus 0.6 mg/kg i.p.): 1 h
COc1ccc(C=CC(=O)Nc2ccccc2C(=O)O)cc1OC [Tranilast, N-(3′,4′-dimethoxycinnamoyl)anthranilic acid]	–	125000 to 8e+06	0.125 to 8 µM	0.5	1 to 8	1 to 8	100	100	100	97	99	5.0	5.0 and 5.0 ± 0.0	89.7	893.3	4.3	0.0	9.3	14.3 and 14.3 ± 0.3	Anti-inflammatory and analgesic properties in collagen-induced arthritis (RA model) [34]. Suppresses COX-2 and iNOS expression, reduces PGE2 and iNOS-derived NO production in stimulated macrophages. Diminishes TNF-α and IL-1β production [35]. T1/2 = 7.4 h	–
CC(C)(C)CC(=O)OCC(=O)[C@@]12OC(C)(C)O[C@@H]1C[C@H]1[C@@H]3CCC4=CC(=O)C=C[C@]4(C)[C@@]3(F)[C@@H](O)C[C@@]12C [Triamcinolone hexacetonide]	–	–	3.12 to 400 µM	0.297	–	62.5 to 3750	35	34	35	32	34	2.3	3.3 ± 0.9	61.1	453.3	2.0	0.7	5.0	8.3 ± 2.6	Steroid t 1/2 = 88 min	Cartilage matrix damage score ([7]; listed as TH): 3.3; Total joint score with matrix ([7]; listed as Trimacinolone Hexacetonide): 8.3
CC1=C(CO)C(=O)O[C@@H]([C@@H](C)[C@H]2CC[C@H]3[C@@H]4C[C@H]5O[C@]56[C@@H](O)C=CC(=O)[C@]6(C)[C@H]4CC[C@]23C)C1 [Withaferin A]	–	0.27 to 2.1	Toxic	0.53	0.27 to 2.1	4.25 to 17	–	–	–	–	–	–	–	–	–	–	–	–	–	Reportedly inhibits NF-κB activation by preventing the TNF-α-induced activation of IKK-β (IKK-2) [102] Blocks osteoclastogenesis of bone remodeling [103] t 1/2 = 1.36 h	–
